PMC4385830, “Group I Paks as therapeutic targets in NF2-deficient meningioma” (Oncotarget, 2015)
pIC50: −log10 of the molar value.

Legend:
[1] = test system: KT21 or Ben-Men cells; assay: Immunoblot of signaling pathways; format: cell-based
Procedure: (§1) Protein concentration was determined, and equal amount of total proteins were separated by SDS-PAGE. […] GAPDH and β-actin were used as loading control.

[2] = test system: Ben-Men cells; assay: Immunoblot of signaling pathways; format: cell-based
Procedure: as §1

[3] = molecular target: T1, CDK9/cyclin T1 (Homo sapiens, UniProt P50750); assay: Kinase selectivity, Z'-LYTE; format: biochemical
T1 construct: purchased Invitrogen (Life Technologies) SelectScreen Z'-LYTE
Procedure: (§2) Kinase selectivity was assessed using a commercial service that employs a fluorescence-based, coupled-enzyme assay based on the differential sensitivity of phosphorylated and non-phosphorylated peptides to proteolytic cleavage (Invitrogen, Z'-LYTE®). This assay uses recombinant protein kinases and assay mixed optimized for each particular kinase (http://www.lifetechnologies.com/us/en/home/life-science/drug-discovery/target-and-lead-identification-and-validation /kinasebiology/kinase-activity-assays/z-lyte.html).

[4] = molecular target: T2, INSR (Homo sapiens, UniProt P06213); assay: Kinase selectivity, Z'-LYTE; format: biochemical
T2 construct: purchased Invitrogen (Life Technologies) SelectScreen Z'-LYTE
Procedure: as §2

[5] = molecular target: T3, AKT1 (PKB alpha) (Homo sapiens, UniProt P31749); assay: Kinase selectivity, Z'-LYTE; format: biochemical
T3 construct: purchased Invitrogen (Life Technologies) SelectScreen Z'-LYTE
Procedure: as §2

[6] = molecular target: T4, MAPKAPK2 (Homo sapiens, UniProt P49137); assay: Kinase selectivity, Z'-LYTE; format: biochemical
T4 construct: purchased Invitrogen (Life Technologies) SelectScreen Z'-LYTE
Procedure: as §2

[7] = molecular target: T5, MAPK1 (ERK2) (Homo sapiens, UniProt P28482); assay: Kinase selectivity, Z'-LYTE; format: biochemical
T5 construct: purchased Invitrogen (Life Technologies) SelectScreen Z'-LYTE
Procedure: as §2

[8] = molecular target: T6, PRKACA (PKA) (Homo sapiens, UniProt P17612); assay: Kinase selectivity, Z'-LYTE; format: biochemical
T6 construct: purchased Invitrogen (Life Technologies) SelectScreen Z'-LYTE
Procedure: as §2

[9] = molecular target: T7, FLT1 (VEGFR1) (Homo sapiens, UniProt P17948); assay: Kinase selectivity, Z'-LYTE; format: biochemical
T7 construct: purchased Invitrogen (Life Technologies) SelectScreen Z'-LYTE
Procedure: as §2

[10] = molecular target: T8, MAP2K2 (MEK2) (Homo sapiens, UniProt P36507); assay: Kinase selectivity, Z'-LYTE; format: biochemical
T8 construct: purchased Invitrogen (Life Technologies) SelectScreen Z'-LYTE
Procedure: as §2

[11] = molecular target: T9, TEK (Tie2) (Homo sapiens, UniProt Q02763); assay: Kinase selectivity, Z'-LYTE; format: biochemical
T9 construct: purchased Invitrogen (Life Technologies) SelectScreen Z'-LYTE
Procedure: as §2

[12] = molecular target: T10, CHEK2 (CHK2) (Homo sapiens, UniProt O96017); assay: Kinase selectivity, Z'-LYTE; format: biochemical
T10 construct: purchased Invitrogen (Life Technologies) SelectScreen Z'-LYTE
Procedure: as §2

[13] = molecular target: T11, MST1R (RON) (Homo sapiens, UniProt Q04912); assay: Kinase selectivity, Z'-LYTE; format: biochemical
T11 construct: purchased Invitrogen (Life Technologies) SelectScreen Z'-LYTE
Procedure: as §2

[14] = molecular target: T12, JAK1 (Homo sapiens, UniProt P23458); assay: Kinase selectivity, Z'-LYTE; format: biochemical
T12 construct: purchased Invitrogen (Life Technologies) SelectScreen Z'-LYTE
Procedure: as §2

[15] = molecular target: T13, CSNK1G2 (CK1 gamma 2) (Homo sapiens, UniProt P78368); assay: Kinase selectivity, Z'-LYTE; format: biochemical
T13 construct: purchased Invitrogen (Life Technologies) SelectScreen Z'-LYTE
Procedure: as §2

[16] = molecular target: T14, MAP2K1 (MEK1) (Homo sapiens, UniProt Q02750); assay: Kinase selectivity, Z'-LYTE; format: biochemical
T14 construct: purchased Invitrogen (Life Technologies) SelectScreen Z'-LYTE
Procedure: as §2

[17] = molecular target: T15, EPHA2 (Homo sapiens, UniProt P29317); assay: Kinase selectivity, Z'-LYTE; format: biochemical
T15 construct: purchased Invitrogen (Life Technologies) SelectScreen Z'-LYTE
Procedure: as §2

[18] = molecular target: T16, LYNA (Homo sapiens, UniProt P07948); assay: Kinase selectivity, Z'-LYTE; format: biochemical
T16 construct: purchased Invitrogen (Life Technologies) SelectScreen Z'-LYTE
Procedure: as §2

[19] = molecular target: T17, SRC (Homo sapiens, UniProt P12931); assay: Kinase selectivity, Z'-LYTE; format: biochemical
T17 construct: purchased Invitrogen (Life Technologies) SelectScreen Z'-LYTE
Procedure: as §2

[20] = molecular target: T18, RP88KB1 (p70S6K) (Homo sapiens, UniProt P23443); assay: Kinase selectivity, Z'-LYTE; format: biochemical
T18 construct: purchased Invitrogen (Life Technologies) SelectScreen Z'-LYTE
Procedure: as §2

[21] = molecular target: T19, MAPK9 (JNK2) (Homo sapiens, UniProt P45984); assay: Kinase selectivity, Z'-LYTE; format: biochemical
T19 construct: purchased Invitrogen (Life Technologies) SelectScreen Z'-LYTE
Procedure: as §2

[22] = molecular target: T20, CDK1/cyclin B (Homo sapiens, UniProt P06493); assay: Kinase selectivity, Z'-LYTE; format: biochemical
T20 construct: purchased Invitrogen (Life Technologies) SelectScreen Z'-LYTE
Procedure: as §2

[23] = molecular target: T21, ZAP70 (Homo sapiens, UniProt P43403); assay: Kinase selectivity, Z'-LYTE; format: biochemical
T21 construct: purchased Invitrogen (Life Technologies) SelectScreen Z'-LYTE
T21 sequence (P43403 1-619): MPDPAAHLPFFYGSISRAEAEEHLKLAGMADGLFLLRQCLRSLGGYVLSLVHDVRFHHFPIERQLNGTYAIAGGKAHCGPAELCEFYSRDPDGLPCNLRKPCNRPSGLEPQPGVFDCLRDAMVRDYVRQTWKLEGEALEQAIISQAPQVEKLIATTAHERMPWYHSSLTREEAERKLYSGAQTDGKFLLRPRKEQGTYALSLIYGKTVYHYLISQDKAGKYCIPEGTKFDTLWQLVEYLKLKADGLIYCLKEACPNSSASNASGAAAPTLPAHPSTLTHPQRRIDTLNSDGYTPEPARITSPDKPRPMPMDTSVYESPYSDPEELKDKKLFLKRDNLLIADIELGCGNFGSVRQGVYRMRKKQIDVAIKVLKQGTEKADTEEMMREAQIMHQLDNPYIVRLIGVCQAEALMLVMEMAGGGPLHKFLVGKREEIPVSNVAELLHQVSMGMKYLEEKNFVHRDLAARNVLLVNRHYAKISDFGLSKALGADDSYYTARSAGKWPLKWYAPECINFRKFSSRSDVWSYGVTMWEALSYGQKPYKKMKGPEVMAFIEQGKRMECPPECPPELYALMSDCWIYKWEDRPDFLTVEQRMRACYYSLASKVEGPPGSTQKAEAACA
Procedure: as §2

[24] = test system: KT21 cells; assay: Apoptosis, Annexin V positive cells by flow cytometry; format: cell-based; conditions: 3 days, vs DMSO
Procedure: For detection of apoptosis, subconfluent cells were plated in 60-mm plate and treated with inhibitors for 3 days. Cells were collected, washed and resuspended in 1x binding buffer with Annexin V-EGFP and propidium iodide (BioVision, CA) and incubated at room temperature for 5 min in dark. Apoptosis was measured using FACS with collecting 10,000 events per sample.

[25] = test system: Arachnoid cell AC07; assay: Cell viability, MTT assay; format: cell-based; conditions: NF2+/+, 72 hrs
Procedure: (§3) Cells were plated at 3 × 10^3 cells per well in 96-well plates overnight and treated with various concentrations of Pak inhibitors for 72 hours. Cell viability was measured by MTT assay and the half maximal inhibitory concentration (IC50) was calculated.

[26] = test system: Benign MN328; assay: Cell viability, MTT assay; format: cell-based; conditions: NF2+/+
Procedure: as §3

[27] = test system: Malignant KT21-MG1; assay: Cell viability, MTT assay; format: cell-based; conditions: NF2−/−; 72 hrs; MTT
Procedure: as §3

[28] = test system: Benign Ben-Men-1; assay: Cell viability, MTT assay; format: cell-based; conditions: NF2−/−; 72 hrs; MTT
Procedure: as §3

[29] = test system: Malignant MN525; assay: Cell viability, MTT assay; format: cell-based; conditions: NF2+/+
Procedure: as §3

[30] = inhibitors at IC50 concentration

T10 sequence (O96017 whole entry): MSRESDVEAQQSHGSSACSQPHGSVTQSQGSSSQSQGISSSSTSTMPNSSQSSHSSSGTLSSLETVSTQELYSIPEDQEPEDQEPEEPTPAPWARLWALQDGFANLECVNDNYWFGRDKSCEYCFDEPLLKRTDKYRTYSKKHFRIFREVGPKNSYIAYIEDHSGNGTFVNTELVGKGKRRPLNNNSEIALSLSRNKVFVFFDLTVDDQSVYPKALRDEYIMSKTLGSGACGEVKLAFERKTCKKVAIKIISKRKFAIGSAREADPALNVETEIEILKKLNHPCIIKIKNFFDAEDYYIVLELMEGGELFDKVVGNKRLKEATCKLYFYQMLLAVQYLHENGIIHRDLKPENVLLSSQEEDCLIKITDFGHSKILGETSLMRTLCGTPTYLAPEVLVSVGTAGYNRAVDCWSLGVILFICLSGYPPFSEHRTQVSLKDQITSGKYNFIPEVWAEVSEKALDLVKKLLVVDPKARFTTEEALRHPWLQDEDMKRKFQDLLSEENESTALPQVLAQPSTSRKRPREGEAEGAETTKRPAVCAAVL
T16 sequence (P07948 whole entry): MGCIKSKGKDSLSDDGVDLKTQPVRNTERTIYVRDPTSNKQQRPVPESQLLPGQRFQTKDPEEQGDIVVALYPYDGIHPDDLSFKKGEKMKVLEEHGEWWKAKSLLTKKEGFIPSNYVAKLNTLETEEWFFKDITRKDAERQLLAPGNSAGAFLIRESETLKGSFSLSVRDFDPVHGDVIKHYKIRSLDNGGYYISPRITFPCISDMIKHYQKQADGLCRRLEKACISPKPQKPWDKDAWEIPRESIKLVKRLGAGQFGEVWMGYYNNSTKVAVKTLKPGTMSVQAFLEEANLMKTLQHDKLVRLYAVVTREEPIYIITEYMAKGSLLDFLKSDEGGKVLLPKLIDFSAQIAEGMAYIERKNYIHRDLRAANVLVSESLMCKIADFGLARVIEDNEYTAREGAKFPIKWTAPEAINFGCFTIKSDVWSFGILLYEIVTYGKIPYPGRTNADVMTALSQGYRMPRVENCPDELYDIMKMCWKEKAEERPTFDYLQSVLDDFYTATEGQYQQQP
T19 sequence (P45984 whole entry): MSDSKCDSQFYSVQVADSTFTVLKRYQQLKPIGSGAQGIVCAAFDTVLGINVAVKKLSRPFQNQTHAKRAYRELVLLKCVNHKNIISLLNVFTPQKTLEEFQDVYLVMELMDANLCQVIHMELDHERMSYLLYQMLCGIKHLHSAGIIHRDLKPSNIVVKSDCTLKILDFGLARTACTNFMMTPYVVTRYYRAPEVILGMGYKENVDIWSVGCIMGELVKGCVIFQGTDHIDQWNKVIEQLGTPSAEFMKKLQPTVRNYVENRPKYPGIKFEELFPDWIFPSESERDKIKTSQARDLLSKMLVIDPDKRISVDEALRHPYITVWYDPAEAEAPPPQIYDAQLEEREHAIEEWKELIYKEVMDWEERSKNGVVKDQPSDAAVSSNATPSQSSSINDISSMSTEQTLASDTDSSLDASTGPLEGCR
T11 sequence (Q04912 25-1400): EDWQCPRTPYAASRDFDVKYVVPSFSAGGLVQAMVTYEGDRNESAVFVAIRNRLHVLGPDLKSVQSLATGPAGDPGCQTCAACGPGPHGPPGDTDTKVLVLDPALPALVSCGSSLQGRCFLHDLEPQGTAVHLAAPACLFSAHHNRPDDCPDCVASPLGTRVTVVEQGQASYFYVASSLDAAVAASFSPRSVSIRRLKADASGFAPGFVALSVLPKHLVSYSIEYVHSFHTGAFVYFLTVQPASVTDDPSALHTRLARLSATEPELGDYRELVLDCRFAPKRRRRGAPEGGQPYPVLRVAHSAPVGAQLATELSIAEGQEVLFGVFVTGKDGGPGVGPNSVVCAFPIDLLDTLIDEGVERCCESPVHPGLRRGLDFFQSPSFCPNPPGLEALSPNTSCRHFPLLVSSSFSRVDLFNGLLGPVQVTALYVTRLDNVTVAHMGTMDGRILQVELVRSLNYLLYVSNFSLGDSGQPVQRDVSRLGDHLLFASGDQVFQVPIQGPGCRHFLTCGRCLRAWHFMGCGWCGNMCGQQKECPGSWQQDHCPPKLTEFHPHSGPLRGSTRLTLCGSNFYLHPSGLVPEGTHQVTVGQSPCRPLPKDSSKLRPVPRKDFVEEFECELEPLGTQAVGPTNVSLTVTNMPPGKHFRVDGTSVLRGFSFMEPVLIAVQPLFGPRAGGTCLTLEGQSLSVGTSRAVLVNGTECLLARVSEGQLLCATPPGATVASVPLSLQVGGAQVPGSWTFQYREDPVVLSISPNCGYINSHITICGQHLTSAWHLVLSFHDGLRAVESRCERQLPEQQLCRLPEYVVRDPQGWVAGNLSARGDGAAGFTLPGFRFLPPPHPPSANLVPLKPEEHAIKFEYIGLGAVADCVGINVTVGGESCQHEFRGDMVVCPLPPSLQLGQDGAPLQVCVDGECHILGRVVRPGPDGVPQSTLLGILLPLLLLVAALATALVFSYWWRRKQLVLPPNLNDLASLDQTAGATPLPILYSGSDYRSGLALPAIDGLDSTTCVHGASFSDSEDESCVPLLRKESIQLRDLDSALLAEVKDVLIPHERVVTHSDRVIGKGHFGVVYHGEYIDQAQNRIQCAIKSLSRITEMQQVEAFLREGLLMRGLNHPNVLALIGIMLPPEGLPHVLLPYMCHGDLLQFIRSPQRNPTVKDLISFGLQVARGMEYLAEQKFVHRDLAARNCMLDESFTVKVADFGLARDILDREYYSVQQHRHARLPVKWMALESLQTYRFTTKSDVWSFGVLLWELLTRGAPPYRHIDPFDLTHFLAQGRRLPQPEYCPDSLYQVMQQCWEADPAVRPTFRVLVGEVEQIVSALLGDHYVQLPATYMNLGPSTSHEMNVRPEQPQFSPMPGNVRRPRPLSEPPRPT
T1 sequence (P50750 whole entry): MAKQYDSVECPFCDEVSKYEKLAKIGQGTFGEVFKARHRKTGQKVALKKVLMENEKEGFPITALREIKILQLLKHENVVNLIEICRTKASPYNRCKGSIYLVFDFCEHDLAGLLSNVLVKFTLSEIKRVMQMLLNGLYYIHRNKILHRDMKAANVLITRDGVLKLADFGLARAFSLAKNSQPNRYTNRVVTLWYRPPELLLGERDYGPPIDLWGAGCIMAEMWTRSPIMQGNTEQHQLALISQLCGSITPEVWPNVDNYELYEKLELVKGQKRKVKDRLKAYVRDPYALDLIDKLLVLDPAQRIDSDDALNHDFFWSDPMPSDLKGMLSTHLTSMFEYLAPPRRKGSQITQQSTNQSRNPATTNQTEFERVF
T1 sequence (O60563 whole entry partner): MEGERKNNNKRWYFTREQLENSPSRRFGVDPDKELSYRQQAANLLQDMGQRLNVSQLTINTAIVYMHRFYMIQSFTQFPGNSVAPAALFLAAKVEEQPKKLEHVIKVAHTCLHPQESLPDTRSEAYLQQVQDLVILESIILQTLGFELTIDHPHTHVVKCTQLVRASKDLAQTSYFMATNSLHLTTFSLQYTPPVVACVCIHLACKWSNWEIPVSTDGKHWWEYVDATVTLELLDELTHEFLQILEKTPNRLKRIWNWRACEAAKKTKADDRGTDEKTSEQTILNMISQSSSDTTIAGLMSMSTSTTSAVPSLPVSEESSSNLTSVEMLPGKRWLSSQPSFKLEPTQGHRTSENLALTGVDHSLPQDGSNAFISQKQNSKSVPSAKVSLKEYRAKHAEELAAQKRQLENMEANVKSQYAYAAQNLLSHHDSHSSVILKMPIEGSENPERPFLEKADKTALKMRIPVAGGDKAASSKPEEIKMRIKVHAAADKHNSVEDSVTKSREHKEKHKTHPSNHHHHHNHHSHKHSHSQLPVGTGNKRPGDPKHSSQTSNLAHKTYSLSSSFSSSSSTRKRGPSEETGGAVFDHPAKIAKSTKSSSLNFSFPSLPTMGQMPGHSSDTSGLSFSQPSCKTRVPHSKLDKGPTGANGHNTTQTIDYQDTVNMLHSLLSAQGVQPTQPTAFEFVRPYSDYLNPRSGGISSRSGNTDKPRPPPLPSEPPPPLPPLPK
T18 sequence (P23443 whole entry): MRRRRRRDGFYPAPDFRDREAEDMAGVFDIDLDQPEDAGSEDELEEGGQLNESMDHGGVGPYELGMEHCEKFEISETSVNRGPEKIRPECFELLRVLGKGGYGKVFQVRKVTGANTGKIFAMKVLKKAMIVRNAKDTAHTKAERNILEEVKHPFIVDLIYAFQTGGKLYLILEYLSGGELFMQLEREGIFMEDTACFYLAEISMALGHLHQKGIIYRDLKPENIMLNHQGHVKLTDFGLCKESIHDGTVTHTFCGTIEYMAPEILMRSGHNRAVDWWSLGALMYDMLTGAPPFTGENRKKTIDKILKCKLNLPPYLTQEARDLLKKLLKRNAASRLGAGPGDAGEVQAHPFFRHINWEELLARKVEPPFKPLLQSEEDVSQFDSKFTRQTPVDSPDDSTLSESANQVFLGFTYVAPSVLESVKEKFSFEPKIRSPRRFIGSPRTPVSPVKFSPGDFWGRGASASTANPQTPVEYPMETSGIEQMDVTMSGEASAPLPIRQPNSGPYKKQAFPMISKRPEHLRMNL
T17 sequence (P12931 whole entry): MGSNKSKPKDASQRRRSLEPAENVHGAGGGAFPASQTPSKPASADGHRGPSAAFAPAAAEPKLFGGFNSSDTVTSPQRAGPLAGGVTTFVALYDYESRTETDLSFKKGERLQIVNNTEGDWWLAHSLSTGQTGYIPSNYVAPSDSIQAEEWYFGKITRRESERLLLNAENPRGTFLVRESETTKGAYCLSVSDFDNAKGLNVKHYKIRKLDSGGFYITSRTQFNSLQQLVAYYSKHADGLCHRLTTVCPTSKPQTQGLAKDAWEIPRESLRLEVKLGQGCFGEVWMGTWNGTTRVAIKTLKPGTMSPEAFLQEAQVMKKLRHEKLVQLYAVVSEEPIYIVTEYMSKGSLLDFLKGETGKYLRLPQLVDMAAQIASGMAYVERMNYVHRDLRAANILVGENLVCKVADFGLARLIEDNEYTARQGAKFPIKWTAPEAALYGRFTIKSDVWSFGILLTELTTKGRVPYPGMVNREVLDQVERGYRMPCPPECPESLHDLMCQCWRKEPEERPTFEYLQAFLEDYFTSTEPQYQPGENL

SMILES	phosphorylation of Pak and Mek1 (at Ser298) [1, 30]	basal level (expression) of β-catenin [2]	% inhibition of activity [3] [%]	% inhibition of activity [4] [%]	% inhibition of activity [5] [%]	% inhibition of activity [6] [%]	% inhibition of activity [7] [%]	% inhibition of activity [8] [%]	% inhibition of activity [9] [%]	% inhibition of activity [10] [%]	% inhibition of activity [11] [%]	% inhibition of activity [12] [%]	% inhibition of activity [13] [%]	% inhibition of activity [14] [%]	% inhibition of activity [15] [%]	% inhibition of activity [16] [%]	% inhibition of activity [17] [%]	% inhibition of activity [18] [%]	% inhibition of activity [19] [%]	% inhibition of activity [20] [%]	further results
CCn1c(=O)c(-c2ccc(-c3noc(C)n3)cc2Cl)cc2cnc(Nc3ccc(C4CCN(C)CC4)cc3)nc21 [Frax716]	dramatically inhibited	did not impact	3	14	1	7	7	7	37	79	98	17	40	1	3	48	68	88	97	1	phosphorylation of β-catenin [2]: diminished; % inhibition of activity [21]: 20%; % inhibition of activity [22]: 3%; % inhibition of activity [23]: 8%; number of apoptotic cells [24]: substantial increase; pIC50 [25]: 6.54; pIC50 ([26]; 72 hrs): 6.14; pIC50 [27]: 5.96; pIC50 [28]: 6.66; pIC50 ([29]; 72 hrs): 6.31
CCn1c(=O)c(-c2ccc(-c3cncc(C)n3)cc2Cl)cc2cnc(NCCC3CCN(C)CC3)nc21 [Frax1036]	nearly abolished	induction	−8	0	0	0	5	1	14	15	2	7	55	1	3	27	18	39	16	10	% inhibition of activity [21]: 44%; % inhibition of activity [22]: 6%; % inhibition of activity [23]: 3%; number of apoptotic cells [24]: substantial increase; pIC50 [25]: 5.91; pIC50 ([26]; 72 hrs): 5.37; pIC50 [27]: 5.70; pIC50 [28]: 5.72; pIC50 ([29]; 72 hrs): 5.48
Cc1nc(Nc2[nH]nc3c2CN(C(=O)N[C@H](CN(C)C)c2ccccc2)C3(C)C)c2sccc2n1 [PF3758309, reference compound]	dramatically inhibited	induction	13	7	16	1	23	100	5	20	0	99	8	2	9	39	18	76	74	79	activity of Akt ([1]; either cell type): did not influence; Erk activity [1, 30]: decrease; % inhibition of activity [21]: 0%; % inhibition of activity [22]: 12%; % inhibition of activity [23]: 10%; number of apoptotic cells [24]: substantial increase; pIC50 [25]: 5.86; pIC50 ([26]; 72 h): 5.47; pIC50 ([26]; 72 hrs): 5.47; pIC50 [27]: 6.42; pIC50 [28]: 7.53; pIC50 ([29]; 72 h): 5.28; pIC50 ([29]; 72 hrs): 5.27
